The target in one assay is T1, human recombinant HDAC1 (Homo sapiens, UniProt Q13547).
T1 construct: purchased Enzo Life Sciences, Inc. BML-SE456
Kind of assay: In vitro HDAC enzyme activity inhibition assay, HDAC1 (HDAC Fluorimetric Drug Discovery Kit). Format: biochemical. Particulars: human recombinant HDAC1, Fluor de Lys-SIRT1 substrate 10 μM, 30° C. for 60 minutes. In short, it runs like this: (§1)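 Both HDAC1 and HDAC6 (human recombinant, 0.3 μg) tested identically: 10 μM fluorogenic Fluor de Lys-SIRT1 substrate, reaction 60 min at 30° C, developer added for 30 min. IC50 calculated from Ex 360/Em 460 signal over 5-fold serial dilutions.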

In another assay the target is T2, human recombinant HDAC6 (Homo sapiens, UniProt Q9UBN7).
T2 construct: purchased Calbiochem Inc. 382180
T2 sequence (Q9UBN7 1-1215): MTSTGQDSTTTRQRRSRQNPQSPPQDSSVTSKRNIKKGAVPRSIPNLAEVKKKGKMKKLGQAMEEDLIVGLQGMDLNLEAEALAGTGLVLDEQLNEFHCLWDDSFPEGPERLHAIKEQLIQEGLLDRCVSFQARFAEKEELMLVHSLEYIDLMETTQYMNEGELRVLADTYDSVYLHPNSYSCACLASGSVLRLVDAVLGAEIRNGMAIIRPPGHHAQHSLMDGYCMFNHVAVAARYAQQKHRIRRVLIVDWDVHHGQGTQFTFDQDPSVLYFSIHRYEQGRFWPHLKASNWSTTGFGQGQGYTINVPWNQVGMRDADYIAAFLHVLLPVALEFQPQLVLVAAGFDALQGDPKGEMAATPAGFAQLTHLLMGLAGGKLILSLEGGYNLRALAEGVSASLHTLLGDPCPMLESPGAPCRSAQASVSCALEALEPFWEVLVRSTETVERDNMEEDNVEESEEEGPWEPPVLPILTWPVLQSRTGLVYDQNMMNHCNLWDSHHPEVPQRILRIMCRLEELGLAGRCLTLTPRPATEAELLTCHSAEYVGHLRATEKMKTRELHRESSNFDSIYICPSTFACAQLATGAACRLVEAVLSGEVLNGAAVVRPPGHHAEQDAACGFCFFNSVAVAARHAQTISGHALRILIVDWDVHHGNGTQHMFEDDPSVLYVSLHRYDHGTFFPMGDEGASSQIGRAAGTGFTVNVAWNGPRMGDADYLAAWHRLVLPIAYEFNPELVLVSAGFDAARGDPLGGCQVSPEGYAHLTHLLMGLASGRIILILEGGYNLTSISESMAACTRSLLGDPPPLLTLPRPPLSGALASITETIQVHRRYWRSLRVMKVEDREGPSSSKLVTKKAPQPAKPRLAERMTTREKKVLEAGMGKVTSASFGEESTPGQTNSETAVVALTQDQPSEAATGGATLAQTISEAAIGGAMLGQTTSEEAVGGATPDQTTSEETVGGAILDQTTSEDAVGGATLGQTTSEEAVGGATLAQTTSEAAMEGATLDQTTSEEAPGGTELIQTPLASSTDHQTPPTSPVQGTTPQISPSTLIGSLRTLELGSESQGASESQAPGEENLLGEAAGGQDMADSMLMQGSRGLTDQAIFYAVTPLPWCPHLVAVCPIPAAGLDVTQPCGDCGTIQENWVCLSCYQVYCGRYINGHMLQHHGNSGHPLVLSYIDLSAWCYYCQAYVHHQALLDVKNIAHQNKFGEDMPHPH
The assay is described as follows: In vitro HDAC enzyme activity inhibition assay, HDAC6 (HDAC Fluorimetric Drug Discovery Kit). The following applies: for HDAC6 Selectivity (fold): HDAC6 versus HDAC1; for IC50: human recombinant HDAC6, same protocol as the HDAC1 test. The class given is biochemical. In short, it runs like this:
as §1

For orientation: IC50 means the concentration needed to halve the response being measured.

Some results are limits rather than exact numbers.

T1 sequence (Q13547 whole entry): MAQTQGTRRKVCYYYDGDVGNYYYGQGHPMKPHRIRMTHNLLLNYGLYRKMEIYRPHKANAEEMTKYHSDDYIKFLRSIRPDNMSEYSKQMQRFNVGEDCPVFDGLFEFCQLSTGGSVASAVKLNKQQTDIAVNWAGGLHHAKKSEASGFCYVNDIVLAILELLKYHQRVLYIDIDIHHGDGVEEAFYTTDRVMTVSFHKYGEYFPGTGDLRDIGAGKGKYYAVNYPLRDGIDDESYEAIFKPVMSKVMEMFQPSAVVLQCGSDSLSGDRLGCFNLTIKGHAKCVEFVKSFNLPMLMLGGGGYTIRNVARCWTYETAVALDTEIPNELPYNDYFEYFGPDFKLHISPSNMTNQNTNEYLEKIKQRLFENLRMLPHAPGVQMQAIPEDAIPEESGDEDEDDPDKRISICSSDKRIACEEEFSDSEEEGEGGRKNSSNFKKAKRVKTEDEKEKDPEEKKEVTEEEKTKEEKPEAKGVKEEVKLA

As for `O=C(C1CN(C2CCC(F)(F)CC2)C1)N(Cc1cn2ccc(-c3nnc(C(F)F)o3)cc2n1)c1ccccc1` [Compound 4166, 1-(4,4-difluorocyclohexyl)-N-((7-(5-(difluoromethyl)-1,3,4-oxadiazol-2-yl)imidazo[1,2-a]pyridin-2-yl)methyl)-N-phenylazetidine-3-carboxamide], at human recombinant HDAC1, the IC50 was over 50000 nM. On human recombinant HDAC6, the “HDAC6 Selectivity (fold)” value is 197 fold and the half-maximal inhibitory concentration (IC50) was found to be 254 nM.

For `CN(C)C(=O)N1CC(C(=O)N(Cc2cn3ccc(-c4nnc(C(F)F)o4)cc3n2)c2cccc(F)c2)C1` [Compound 4205, N3-((7-(5-(difluoromethyl)-1,3,4-oxadiazol-2-yl)imidazo[1,2-a]pyridin-2-yl)methyl)-N3-(3-fluorophenyl)-N1,N1-dimethylazetidine-1,3-dicarboxamide], at human recombinant HDAC1, the IC50 is over 50000 nM. At human recombinant HDAC6, the “HDAC6 Selectivity (fold)” value stood at 348 fold and the IC50 came to 144 nM.

Turning to `CN1CCN(C(=O)N(Cc2cn3ccc(-c4nnc(C(F)F)o4)cc3n2)c2cccc(F)c2)CC1` [Compound 4083, N-((7-(5-(difluoromethyl)-1,3,4-oxadiazol-2-yl)imidazo[1,2-a]pyridin-2-yl)methyl)-N-(3-fluorophenyl)-4-methylpiperazine-1-carboxamide], the IC50 at human recombinant HDAC1 was over 50000 nM. Further, on human recombinant HDAC6, the “HDAC6 Selectivity (fold)” value came to 108 fold and the IC50 was found to be 465 nM.

For the molecule `O=C(CO)N1CC(C(=O)N(Cc2cn3ccc(-c4nnc(C(F)F)o4)cc3n2)c2ccccc2)C1` [Compound 4169, N-((7-(5-(difluoromethyl)-1,3,4-oxadiazol-2-yl)imidazo[1,2-a]pyridin-2-yl)methyl)-1-(2-hydroxyacetyl)-N-phenylazetidine-3-carboxamide], the IC50 at human recombinant HDAC1 was over 50000 nM; at human recombinant HDAC6, 815 nM. For the same molecule, the “HDAC6 Selectivity (fold)” value on human recombinant HDAC6 is reported as 61 fold.

Take `CN(C)C(=O)N1CCN(C(=O)N(Cc2cn3ccc(-c4nnc(C(F)F)o4)cc3n2)c2cccc(F)c2)CC1` [Compound 4099, N1-((7-(5-(difluoromethyl)-1,3,4-oxadiazol-2-yl)imidazo[1,2-a]pyridin-2-yl)methyl)-N1-(3-fluorophenyl)-N4,N4-dimethylpiperazine-1,4-dicarboxamide]: the half-maximal inhibitory concentration (IC50) is over 50000 nM at human recombinant HDAC1 and 139 nM on human recombinant HDAC6. The “HDAC6 Selectivity (fold)” value at human recombinant HDAC6 came to 360 fold.

As to `O=C(C1CN(C2CCOCC2)C1)N(Cc1cn2ccc(-c3nnc(C(F)F)o3)cc2n1)c1ccccc1` [Compound 4165, N-((7-(5-(difluoromethyl)-1,3,4-oxadiazol-2-yl)imidazo[1,2-a]pyridin-2-yl)methyl)-N-phenyl-1-(tetrahydro-2H-pyran-4-yl) azetidine-3-carboxamide], the IC50 on human recombinant HDAC1 is over 50000 nM. Also, at human recombinant HDAC6, the “HDAC6 Selectivity (fold)” value was 121 fold and the IC50 came out at 413 nM.

For the molecule `O=C(N1CCN(C2COC2)CC1)N(Cc1cn2ccc(-c3nnc(C(F)F)o3)cc2n1)c1cccc(F)c1` [Compound 4088, N-((7-(5-(difluoromethyl)-1,3,4-oxadiazol-2-yl)imidazo[1,2-a]pyridin-2-yl)methyl)-N-(3-fluorophenyl)-4-(oxetan-3-yl)piperazine-1-carboxamide], the figures for the IC50 on human recombinant HDAC1 and on human recombinant HDAC6 were over 50000 nM and 320 nM, respectively. In addition, on human recombinant HDAC6, the “HDAC6 Selectivity (fold)” value amounted to 156 fold.

(Values after patent US12522601B2, “1,3,4-oxadiazole derivative compounds as histone deacetylase 6 inhibitor, and the pharmaceutical composition comprising the same” (CHONG KUN DANG PHARMACEUTICAL CORP., priority 2020, dated 2026).)
